Experimental data taken from the OPERA property sets (Mansouri et al. 2018).

Row | SMILES | logP
1 | CC(C)OC(=O)c1ccccc1 | 3.18
2 | S=c1cc[nH]cc1 | 0.2
3 | CC1(C)N=C(N)N=C(N)N1c1ccc(OCC(=O)N2CCOCC2)cc1 | -1.18
4 | c1ccc2c(c1)CNc1ccccc1C2 | 2.9
5 | Nc1nnc(N)[nH]1 | -1.61
6 | CN(Cc1ccccc1)N=Nc1[nH]cnc1C(N)=O | 1.54
7 | CSc1ccc(C=NN=C(N)NO)cc1 | 0.32
8 | Cc1c(N2CCCC2)c(=O)n(-c2ccccc2)c(=O)n1C | 2.26
9 | O=CC=Cc1ccco1 | 1.15
10 | c1ccc(CSc2nnc[nH]2)cc1 | 1.45
11 | OCCOCCN1CCN(CCCN2c3ccccc3Sc3ccc(C(F)(F)F)cc32)CC1 | 4.49
12 | CCOc1cc(Cc2cnc(N)nc2N)cc(OCC)c1 | 2.52
13 | c1cc2n(n1)CCN2 | -0.25
14 | O=C1NC(c2cccc3ccccc23)Nc2ccccc21 (stereo not drawn) | 2.96
15 | CC(=O)OCCC(=O)N(C)c1ccc(S(=O)(=O)N(C)C)cc1 | 0.26
16 | N#CCCN(CCC#N)/N=N/c1nc[nH]c1C(N)=O | -0.76
17 | CC(=O)N(C)c1ccc(S(=O)(=O)N(C)C)cc1 | 0.23
18 | CC1(O)OC(=O)c2ccccc21 (stereo not drawn) | 0.81
19 | Cc1nnc(SCc2ccccc2)s1 | 2.35
20 | O=c1[nH]cc(I)c(=O)[nH]1 | 0.04
21 | COc1cc(C=O)ccc1OCCO | 0.58
22 | COc1cccc(OC)n1 | 2.3
23 | CCN(CC)Cc1ccc(C(=O)Nc2ccccc2)cc1 | 3.49
24 | NCC(=O)NCC(=O)NCC(=O)NCC(=O)NCC(=O)O | -3.31
25 | CN(Cc1ccccc1)N=Nc1ccc(C(=O)O)cc1 | 4.04

Row | SMILES | logP
26 | NC(=O)c1nc[nH]c1N=NN(CCO)Cc1ccccc1 | 0.99
27 | CC(=O)Nc1ccc(C#N)cc1 | 1.37
28 | O=C1C=CC(=NCl)C=C1 | 1.26
29 | O=S1(=O)NC(C2=CCCC2)=Nc2ccccc21 | 1.69
30 | CCCc1ccc2c(c1)C(=O)c1ccc(NC(C)=O)cc1S2(=O)=O | 3.51
31 | CN=C=S | 0.94
32 | CCCC1CC(C(=O)NC(C(C)O)C2OC(SC)C(O)C(O)C2O)N(CC)C1 (stereo not drawn) | 1.02
33 | CSC(=O)Nc1ccc(Cl)c(Cl)c1 | 4.23
34 | O=[N+]([O-])c1ccc(/C=C/c2cccc(CO)n2)o1 | 1.37
35 | CC(=O)OCC1OC(NC(=O)N(CCCl)N=O)C(OC(C)=O)C(OC(C)=O)C1OC(C)=O (stereo not drawn) | 1.04
36 | CCOCCOC(=O)C(C#N)=C(CC)NCc1ccc([N+](=O)[O-])cc1 | 2.64
37 | C=CCN(C)N=Nc1ccc(C(N)=O)cc1 | 2.09
38 | CC(=O)Nc1ccc(C(F)(F)F)cc1 | 2.52
39 | CC(=O)Nc1cccc(C#N)c1 | 1.2
40 | CNC(=S)Nc1ccccc1 | 0.85
41 | CCOC(=O)CC(=O)C=Cc1ccccc1C | 2.66
42 | CCCCC(=O)Nc1ccc(Cl)c(Cl)c1 | 4.17
43 | CC1(C)N=C(N)N=C(N)N1c1cccc([N+](=O)[O-])c1 | 0.06
44 | O=c1cc(-c2ccc(O)cc2)oc2ccccc12 | 3.2
45 | Cc1oc2cc(OCC#N)ccc2c(=O)c1C | 1.96
46 | O=C(OCCNC(=O)C(F)(F)F)c1ccccc1 | 2.25
47 | CSc1nccc(=O)[nH]1 | 0.22
48 | CC(=O)NC1=CC(=O)N(c2ccc(Cl)cc2)C1=O | 0.75
49 | CCN(CC)c1c(C)n(-c2ccccc2)c(=O)n(C)c1=O | 2.19
50 | O=[N+]([O-])c1ccc(C(F)(F)F)cc1 | 2.55

Row | SMILES | logP
51 | CCCOCCC(=O)N(C)c1ccc(S(=O)(=O)N(C)C)cc1 | 1.26
52 | CCC1OC(=O)C(C)C(OC2CC(C)(OC)C(O)C(C)O2)C(C)C(OC2OC(C)C(O)C(N(C)C)C2O)C(C)(O)CC(C)C(=O)C(C)C(O)C1(C)O (stereo not drawn) | 1.44
53 | N=c1ccn2c(n1)O[C@H]1[C@H](O)[C@@H](CO)O[C@H]12 | -2.37
54 | COc1cc(C=O)ccc1OCCOC(=O)c1ccccc1Cl | 3.21
55 | CN(CCO)C1=C(N2CC2)C(=O)C(N(C)CCO)=C(N2CC2)C1=O | -0.37
56 | CCCc1c(OCCCCc2nnn[nH]2)ccc(C(C)=O)c1O | 3.82
57 | Cc1cccc(C)c1NC(=O)c1cccc(CN2CCOCC2)c1 | 2.14
58 | CNc1cccc2ccccc12 | 2.88
59 | O=C(Cc1ccccc1)Nc1ccc(Cl)c(Cl)c1 | 4.47
60 | O=c1cc(-c2ccccc2)oc2cc(O)ccc12 | 3.62
61 | CCOCCOC(=O)C(C#N)=C(CC)Nc1ccc([N+](=O)[O-])cc1 | 2.6
62 | CN(C(=O)CCC(N)=O)c1ccc(S(=O)(=O)N(C)C)cc1 | -0.56
63 | CCC(C)N=C=S (stereo not drawn) | 2.81
64 | O=C(O)c1ccccc1-c1ccccc1C(=O)O | 2.07
65 | NC(=O)c1ncccc1O | 0.65
66 | CSc1ccc(C=NN=C(N)NN)cc1 | 1.35
67 | FC(F)(F)CN(CC(F)(F)F)c1ccccc1 | 3.69
68 | NC(=O)Nc1cccc(NC(N)=O)c1 | 0.58
69 | Cc1nnc(SCc2ccccc2)o1 | 1.74
70 | CC(=O)Nc1ccc(S(C)(=O)=O)cc1 | 0.58
71 | CSC(=O)Nc1ccccc1 | 2.4
72 | CCOC(=O)c1cncn1C(C)c1ccccc1 (stereo not drawn) | 3.05
73 | Nc1nc(N)c2ncn(COCCO)c2n1 | -1.06
74 | Cc1nccnn1 | -1.31
75 | C=CCn1c(C)c(N(C)C)c(=O)n(-c2ccccc2)c1=O | 1.44

Row | SMILES | logP
76 | COC1OC(COC(C)=O)C(OC(C)=O)C(NC(=O)N(CCCl)N=O)C1OC(C)=O (stereo not drawn) | 0.67
77 | O=CC(CO)OC(C=O)n1cnc2c(O)ncnc21 (stereo not drawn) | -2.11
78 | Cc1ccc(S(=O)(=O)Oc2ccccc2C(=O)N(C)C)cc1 | 2.01
79 | CC(Cl)C(=O)N(CC(=O)Nc1ccccc1)c1ccccc1 (stereo not drawn) | 3.02
80 | COC1OC(CO)C(O)C(NC(=O)N(C)N=O)C1O (stereo not drawn) | -0.82
81 | FC(F)(F)C(F)(F)C(F)(F)C(F)(F)C(F)(F)F | 4.4
82 | CCCCOc1ccnc(C=CC2=CC([N+](=O)[O-])O2)n1 (stereo not drawn) | 2.04
83 | O=C(Nc1ccc(Cl)c(Cl)c1)C1CCCC1 | 4.47
84 | c1ccc(Cc2nn[nH]n2)cc1 | 1.36
85 | Cn1nnnc1SCc1ccccc1 | 1.63
86 | CCCCCC1CNC(C(=O)NC(C(C)Cl)C2OC(SC)C(O)C(O)C2O)C1 (stereo not drawn) | 2.74
87 | Cc1cccc(C)c1NC(=O)c1cccc(CN2CCCC2)c1 | 3.1
88 | CNC(=S)NCC(F)(F)C(F)(F)C(F)(F)F | 1.99
89 | O=NN(CCCl)C(=O)NC1(C(=O)O)CCCC1 | 2.01
90 | CC(=O)OC1COC(NC(=O)N(CCl)N=O)C(OC(C)=O)C1OC(C)=O (stereo not drawn) | 1.13
91 | CCCCCCCCCCCCCCCC(=O)OCC1OC(n2ccc(N)nc2=O)C(O)C1O (stereo not drawn) | 5.03
92 | CC(=O)Nc1cccc(I)c1 | 2.64
93 | O=NN1CCCCC1=O | -1.05
94 | COC(=O)CCC(=O)N(C)c1ccc(S(=O)(=O)N(C)C)cc1 | 0.43
95 | CC(=O)NN=CCCc1ccccc1 | 1.8
96 | CC(=O)OC[C@@H](OC(C)=O)[C@@H](OC(C)=O)[C@H](OC(C)=O)[C@H](C=O)OC(C)=O | 0.63
97 | O=C(CN(C(=O)C(Cl)Cl)c1ccccc1)Nc1ccccc1 | 2.96
98 | COc1ccc(C(C)=O)c(N)c1 | 1.76
99 | COc1cc(C=NO)ccc1OCCOC(=O)c1ccccc1OC | 2.84
100 | CC(=O)Nc1ccc2nccnc2c1 | 1

Row | SMILES | logP
101 | O=C(C=Cc1ccc2c(c1)OCO2)N1CCCCC1 | 2.82
102 | CC(C)(NC(=O)N(CCCl)N=O)C(=O)O | 1.74
103 | CC(O)COc1cccc2oc(C(=O)O)cc(=O)c12 (stereo not drawn) | 1.32
104 | O=S(=O)(NO)c1ccccc1 | 0.48
105 | CCN(CC)c1c(C)n(C)c(=O)n(-c2ccccc2)c1=O | 2.11
106 | CSc1ncnc2c1ccn2C1OC(CO)C(O)C1O (stereo not drawn) | 0.09
107 | CCOC(=O)N=[N+]([O-])c1ccccc1 | 2.53
108 | COc1cc(C=NO)ccc1OCCOC(=O)COc1ccccc1 | 2.1
109 | CCCC1CNC(C(=O)NC(C(C)O)C2OC(SC)C(O)C(O)C2O)C1 (stereo not drawn) | 0.04
110 | Cn1c(C=O)cnc1[N+](=O)[O-] | -0.1
111 | c1ccc(CSc2cnn[nH]2)cc1 | 2.65
112 | CC(C)=NO | 0.12
113 | N#CCC(=O)Nc1ccc(Cl)c(Cl)c1 | 2.72
114 | COC(=O)c1cccc(NC(C)=O)c1 | 1.46
115 | CC(=O)Nc1ccccc1C#N | 0.57
116 | COCC(=O)Nc1ccc(Cl)c(Cl)c1 | 2.77
117 | COc1cccc2c1C(=O)c1c(O)c3c(c(O)c1C2=O)CC(O)(C(=O)CO)CC3O (stereo not drawn) | 2.74
118 | CC(=O)Nc1ccc2c(c1)S(=O)(=O)c1ccccc1C2=O | 2.35
119 | CC(=O)NC1CCSC1=O (stereo not drawn) | -0.35
120 | CCC(=O)OCCOc1ccc(C=NO)cc1OC | 1.52
121 | NC(=O)c1cccnc1N | 0.88
122 | NCC(CC(=O)O)c1ccc(Cl)cc1 (stereo not drawn) | -0.96
123 | CC1=C(C(=O)O)N2C(=O)C(NC(=O)C(O)c3ccccc3)C2SC1 (stereo not drawn) | 0.46
124 | O=C1/C(=C2\Nc3ccccc3C2=O)Nc2ccccc21 | 3.72
125 | COc1ccccc1C=CC(=O)OCCOc1ccc(C=O)cc1OC | 3.65

Row | SMILES | logP
126 | O=C(O)c1ccccc1-c1ccccc1 | 2.89
127 | CC(=O)Nc1ccc(C(C)=O)cc1 | 1.24
128 | CC(=O)Nc1ccc2oc(C)c(C)c(=O)c2c1 | 1.79
129 | CN/C(=N\C#N)NCCSCc1csc(N=C(N)N)n1 | 0.68
130 | CC(=O)Nc1ccc(Oc2ccccc2)cc1 | 3.13
131 | CCC1(c2ccccc2)NC(=O)NC1=O (stereo not drawn) | 1.53
132 | CCOc1ccccc1NC(C)=O | 1.49
133 | O=S(Cc1ccccn1)c1nc2ccccc2[nH]1 (stereo not drawn) | 1.33
134 | CCOC(=O)C(=Cc1ccc(OC)c(OC)c1)C(=O)OCC | 2.89
135 | O=C(O)c1cc(=O)c2ccccc2o1 | 1.63
136 | NC(=O)N=[N+]([O-])c1ccccc1 | 0.58
137 | CN(C(=O)CCO)c1ccc(S(=O)(=O)N(C)C)cc1 | -0.26
138 | O=C(Nc1ccc(Cl)c(Cl)c1)c1ccccc1 | 4.42
139 | CCC(CC)C1=Nc2ccccc2S(=O)(=O)N1 | 1.88
140 | O=C(Nc1ccc(Cl)c(Cl)c1)C(F)(F)F | 3.9
141 | CCN(CC)Cc1ccc(C(=O)Nc2c(C)cccc2C)cc1 | 3.49
142 | NC1=NS(=O)(=O)c2ccc(Cl)cc2N1 | 0.91
143 | COc1ccc(Cc2cnc(N)nc2N)c(OC)c1OC | 1.52
144 | CS(=O)(=O)OCCCNCCCOS(C)(=O)=O | -1.71
145 | CCCCC(=O)N(C)c1ccc(S(=O)(=O)N(C)C)cc1 | 1.63
146 | O=C(O)c1ccco1 | 0.64
147 | Cc1oc2ccccc2c(=O)c1C | 2.31
148 | CC(C)CC(CC(C)C)OC(=O)c1ccc(NC(=O)N(C)C)cc1Cl | 5.15
